Data from publication PMC9030932, “Development of Dibenzothiazepine Derivatives as Multifunctional Compounds for Neuropathic Pain” (Pharmaceuticals, 2022).
Entries after “also recorded” stand apart in the source; their conditions may differ. Where two headings read alike, the source gives them in different places. Marks after values point to notes of the source that are not given here.

Key:
[1] = In vitro metabolic stability, rat; type: in vitro ADME; conditions: pH 7.4, % remaining after 30 min incubation with S9 microsomal fraction
Description: (§1) Experimental details for Biology […]
(§2) Microsomal stability. The metabolic stability of compounds was evaluated in rat liver microsomes (RLM). Microsomes (0.5 mg/ml) and test compound (1 µM) in 100 mM potassium phosphate buffer (pH 7.4) were preincubated with shaking (100 rpm) for 5 min at 37 °C. The metabolic reaction was initiated by the addition of an NADPH generating system (60 mM potassium phosphate buffer pH 7.4, 1.3 mM NADP, 3.3 mM glucose-6-phosphate, 0.3 µL glucose-6-phosphate dehydrogenase (0.4 U/mL), and 3.3 mM magnesium chloride) and incubated at 37 °C. Aliquots of 100 µL were withdrawn at 0, 10, 20, 30 and 60 min, and 2 volumes of ice-cold acetonitrile (ACN) were added to terminate the reaction. After mixing by vortex and centrifugation (14000 rpm) for 15 min at 4 °C, the supernatant was transferred to liquid chromatography vials and analyzed by an LC-MS/MS system.
(§3) Table S1. In vitro metabolic stability of selected compounds.
(§4) Compounds Human Rat Mouse […]
(§5) a% remaining after 30 min incubation with S9 microsomal fraction.

[2] = target: T1, human κ-opioid receptor (OPRK1) (Homo sapiens, UniProt P41145); assay: Intracellular calcium mobilization (FLIPR Tetra), HEK-hKOR agonism; type: cell-based; conditions: for agonistic activity at the κ-opioid receptor: HEK-hKOR calcium mobilization; for activation at 10 µM: read-out: % Stimulation at 10 μM, OPRK1 Agonism against DynorphinA (370 nM)
T1 construct: host or cells: HEK293 (constitutive expression)
T1 sequence (P41145 whole entry): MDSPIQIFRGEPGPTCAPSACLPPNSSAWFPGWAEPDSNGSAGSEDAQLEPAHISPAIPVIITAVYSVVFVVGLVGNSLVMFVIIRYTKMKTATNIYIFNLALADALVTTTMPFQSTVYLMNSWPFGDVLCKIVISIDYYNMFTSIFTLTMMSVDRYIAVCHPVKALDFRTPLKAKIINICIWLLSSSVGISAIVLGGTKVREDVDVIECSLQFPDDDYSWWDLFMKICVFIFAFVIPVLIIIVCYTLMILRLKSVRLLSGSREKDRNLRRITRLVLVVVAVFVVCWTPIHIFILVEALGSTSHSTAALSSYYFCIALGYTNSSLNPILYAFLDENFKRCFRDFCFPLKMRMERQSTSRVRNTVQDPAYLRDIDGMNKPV
Description: Intracellular calcium mobilization was measured by using FLIPR Tetra System (Molecular Devices, Sunnyvale, CA, USA) in accordance with manufacturer’s instruction. […] Subsequently, the plate was transferred to the FLIPR tetra system for treating 50 μL of the 5× compounds diluted in loading buffer and reading intracellular calcium mobilization. The final concentration of DMSO was 0.1%. […] A dose response curve was generated with the changes in Relative Fluorescence Units (∆RFU) versus Log10 dose.
Experimental details for Biology
Cell culture. HEK293 cells stably expressing human DA transporter (HEK-hDAT), human NE transporter (HEK-hNET) and human serotonin transporter (HEK-hSERT) were kindly provided by Professor Bryan Roth (University of North Carolina at Chapel Hill). And HEK293 cells constitutively expressing human κ- or μ- opioid receptor (HEK-hKOR_NM000912 or HEK-hMOR_NM000914) were constructed by Professor Ki Duk Park (in Korea Institute of Science […]
Europins DiscoveRx (Fremont, CA, USA). Cells were mainta ined in Dulbecco's modified Eagle's medium (HyClone, Logan, UT, USA) supplemented with 10%(v/v) fetal bovine serum (FBS, HyClone, Logan, UT, USA), penicillin (100 U/mL), and streptomycin (100 μg/mL) in the […]
for HEK-hDAT, HEK-hNET, HEK-hSERT, HEK-hKOR and HEK-hMOR respectively) in a humidified 5% CO2 incubator at 37 °C. In case of both HEK-hKOR and HEK-hMOR, cells were additionally maintained in 0.2 mg/mL hygromycin B, 1 μg/mL puromycin B, 1× non-essential amino acids. The cells were subcultured every 3-4 days. […]

[3] = target: T2, human μ-opioid receptor (OPRM1) (Homo sapiens, UniProt P35372); assay: Intracellular calcium mobilization (FLIPR Tetra), HEK-hMOR agonism; type: cell-based; conditions: for agonistic activity at the μ-opioid receptor: compared to DAMGO
T2 construct: host or cells: HEK293 (constitutive expression)
T2 sequence (P35372 whole entry): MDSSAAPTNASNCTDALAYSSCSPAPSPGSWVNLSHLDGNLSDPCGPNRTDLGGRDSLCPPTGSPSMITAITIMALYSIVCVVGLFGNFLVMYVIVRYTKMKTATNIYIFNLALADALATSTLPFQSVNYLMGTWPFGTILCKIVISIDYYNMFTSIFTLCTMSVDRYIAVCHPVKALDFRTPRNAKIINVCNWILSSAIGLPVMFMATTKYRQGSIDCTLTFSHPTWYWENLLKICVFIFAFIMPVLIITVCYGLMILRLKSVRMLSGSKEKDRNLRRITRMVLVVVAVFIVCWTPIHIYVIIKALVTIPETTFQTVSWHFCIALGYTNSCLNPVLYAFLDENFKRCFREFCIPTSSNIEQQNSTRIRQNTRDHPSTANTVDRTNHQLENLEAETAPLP

hOPRM1 receptor = target: T3, hOPRM1 receptor (Homo sapiens, UniProt P35372); assay: PathHunter CHO-K1 OPRM1 β-arrestin recruitment assay; type: cell-based
T3 construct: host or cells: CHO-K1
T3 sequence (P35372 whole entry): as above

rats = assay: Behavioral responses: motor functions (righting, placing/stepping reflexes), pinna and corneal reflexes after intrathecal administration; type: in vivo, rat; conditions: highest doses, examined for 3 h
Description: Motor functions were assessed by examining righting and placing/stepping reflexes. […] The […] was evoked by the rat drawing the dorsum of either hind paw across the edge of a table. Normally, rats attempt to place a paw into a position that enables walking. The pinna and corneal reflexes were evoked by stimulating the ear canal or cornea, respectively, with a string. Normally, rats spontaneously shake their heads or blink. Normality of behavior was classified as present or absent. To evaluate the behavioral changes induced by compounds 12 and 17, additional rats were examined for 3 h after intrathecal administration of the highest doses of the agents used. The motor function and pinna and corneal reflexes were normal after intrathecal administration of compounds 12 and 17 at the highest doses. Overt abnormal behavioral changes were not observed.

[4] = In vitro metabolic stability, human; type: in vitro ADME; conditions: for in vitro metabolic stability: S9 microsomal fraction, 30 min, Table S1; for recovery at 30 min, 1 µM: human, pH 7.4, % remaining after 30 min incubation with S9 microsomal fraction
Description: as §1, §2, §3, §4, §5

[5] = tested on: spinal-nerve-ligated neuropathic pain rats; assay: Spinal nerve ligation (SNL) neuropathic pain model, von Frey paw withdrawal threshold, intrathecal; type: in vivo, rat; conditions: for maximum possible effect (MPE): highest dose (12: 100 μg; 17: 30 μg); for effect on paw withdrawal threshold (PWT) / allodynia: vs vehicle
Description: Adult male Sprague-Dawley rats weighing 150–180 g each were used. The animals were housed in a room with a constant temperature of 22–23 °C and an alternating 12-h light/dark cycle, with unrestricted access to food and water. Implantation of intrathecal catheters was performed for drug administration under sevoflurane anesthesia, as described previously. Seven days of recovery were allowed after surgery before the use of catheterized rats in the experiments. Spinal nerve-ligated neuropathic pain was induced by tightly ligating the left L5 and L6 spinal nerves, as described previously. Only rats showing allodynia after either spinal nerve ligation (withdrawal threshold < 4 g) were studied. The von Frey test was used to determine the 50% probability paw withdrawal threshold (PWT), using the up and down method, in which a positive response was defined as brisk withdrawal or paw flinching during or immediately after application of a filament. On experimentation days (12 days after SNL), rats were acclimatized in a box with a wire mesh floor for at least 20 min before being randomly allocated to one of the experimental groups. All experiments were carried out by an observer who was blind to the treatments. To investigate the effects of 12 (30 or 100 μg) and 17 (10 or 30 μg), it was supplied intrathecally following post-injury baseline PWT determination in rats with either spinal nerve-ligated neuropathic pain. Withdrawal thresholds were determined at 15, 30, 60, 90, 120, 150, and 180 min after intrathecal administration.
All data are expressed as means ± SEM. The time-response data are presented as the withdrawal threshold in grams. The dose-response data are presented as a percentage of the maximum possible effect (%MPE): %MPE = ((post-drug threshold−post-injury baseline threshold)/(cutoff threshold−post-injury baseline threshold)) × 100. Time and dose-response data were analyzed by a one-way and two-way repeated measures analysis of variance (ANOVA), with a Bonferroni’s post hoc test. A p-value < 0.05 was considered statistically significant.

[6] = target: human serotonin transporter (hSERT) (Homo sapiens, UniProt P31645); assay: Neurotransmitter transporter uptake assay, HEK-hSERT; type: cell-based
Chain of human serotonin transporter (hSERT) (P31645 whole entry): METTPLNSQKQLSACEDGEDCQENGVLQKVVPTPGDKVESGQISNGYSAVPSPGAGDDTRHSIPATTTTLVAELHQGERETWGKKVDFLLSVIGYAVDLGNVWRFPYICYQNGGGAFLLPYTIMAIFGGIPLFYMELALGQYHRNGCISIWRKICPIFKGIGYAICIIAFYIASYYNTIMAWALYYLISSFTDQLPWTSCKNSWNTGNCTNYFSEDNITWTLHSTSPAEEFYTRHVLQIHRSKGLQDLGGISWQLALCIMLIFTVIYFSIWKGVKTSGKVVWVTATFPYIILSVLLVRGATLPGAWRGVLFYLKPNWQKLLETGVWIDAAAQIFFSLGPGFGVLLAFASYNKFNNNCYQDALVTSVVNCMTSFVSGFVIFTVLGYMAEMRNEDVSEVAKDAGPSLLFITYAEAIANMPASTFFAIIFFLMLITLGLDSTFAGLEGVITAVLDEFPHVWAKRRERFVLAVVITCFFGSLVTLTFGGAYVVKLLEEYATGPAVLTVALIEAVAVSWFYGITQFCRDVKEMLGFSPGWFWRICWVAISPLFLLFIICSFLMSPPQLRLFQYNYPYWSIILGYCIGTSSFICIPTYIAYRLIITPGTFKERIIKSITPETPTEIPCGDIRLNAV

[7] = In vitro metabolic stability, mouse; type: in vitro ADME; conditions: pH 7.4, % remaining after 30 min incubation with S9 microsomal fraction
Description: as §1, §2, §3, §4, §5

[8] = target: human norepinephrine transporter (hNET) (Homo sapiens, UniProt P23975); assay: Neurotransmitter transporter uptake assay, HEK-hNET; type: cell-based
Chain of human norepinephrine transporter (hNET) (P23975 whole entry): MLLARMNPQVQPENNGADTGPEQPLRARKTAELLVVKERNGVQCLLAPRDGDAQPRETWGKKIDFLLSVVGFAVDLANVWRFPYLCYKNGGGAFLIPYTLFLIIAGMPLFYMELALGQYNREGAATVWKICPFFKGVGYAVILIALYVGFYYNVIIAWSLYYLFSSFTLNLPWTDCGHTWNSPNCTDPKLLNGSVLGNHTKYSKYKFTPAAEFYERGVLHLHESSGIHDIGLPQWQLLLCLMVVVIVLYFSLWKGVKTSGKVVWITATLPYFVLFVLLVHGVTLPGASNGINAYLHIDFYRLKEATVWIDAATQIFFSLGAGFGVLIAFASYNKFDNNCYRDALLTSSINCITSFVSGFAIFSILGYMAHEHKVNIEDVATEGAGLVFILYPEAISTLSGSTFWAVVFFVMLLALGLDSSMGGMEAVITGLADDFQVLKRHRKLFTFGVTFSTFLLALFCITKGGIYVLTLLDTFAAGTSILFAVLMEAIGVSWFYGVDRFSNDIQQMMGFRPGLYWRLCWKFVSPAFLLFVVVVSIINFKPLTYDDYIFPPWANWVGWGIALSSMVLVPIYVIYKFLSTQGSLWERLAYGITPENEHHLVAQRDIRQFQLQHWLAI

[9] = target: human dopamine transporter (hDAT) (Homo sapiens, UniProt Q01959); assay: Neurotransmitter transporter uptake assay, HEK-hDAT; type: cell-based
Chain of human dopamine transporter (hDAT) (Q01959 whole entry): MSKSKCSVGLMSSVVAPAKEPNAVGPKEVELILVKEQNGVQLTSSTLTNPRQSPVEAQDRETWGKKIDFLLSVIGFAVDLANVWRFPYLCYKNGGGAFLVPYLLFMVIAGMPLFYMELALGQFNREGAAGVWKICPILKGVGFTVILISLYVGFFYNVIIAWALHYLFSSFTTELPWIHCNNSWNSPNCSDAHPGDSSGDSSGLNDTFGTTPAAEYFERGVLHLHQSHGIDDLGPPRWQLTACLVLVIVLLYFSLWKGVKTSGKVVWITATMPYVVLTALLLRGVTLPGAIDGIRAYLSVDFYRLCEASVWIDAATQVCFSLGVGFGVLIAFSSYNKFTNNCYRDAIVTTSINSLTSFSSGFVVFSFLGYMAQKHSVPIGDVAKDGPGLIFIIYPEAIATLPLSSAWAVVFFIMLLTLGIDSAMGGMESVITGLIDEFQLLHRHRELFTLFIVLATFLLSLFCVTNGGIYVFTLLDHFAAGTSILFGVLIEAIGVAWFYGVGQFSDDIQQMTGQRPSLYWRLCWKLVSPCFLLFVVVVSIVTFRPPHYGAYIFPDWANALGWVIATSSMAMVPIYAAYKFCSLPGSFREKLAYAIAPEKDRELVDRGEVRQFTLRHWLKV

hMOR = tested on: hMOR; set-up: method as in earlier work; conditions: ref 21 (Gassaway et al.); cited from earlier work
mMOR = tested on: mMOR; set-up: method as in earlier work; conditions: ref 21 (Gassaway et al.); cited from earlier work

| SMILES | recovery at 30 min, 1 µM [1] [%] | agonistic activity at the κ-opioid receptor [2] | activation at 10 µM [2] [%] | EC50 [3] [µM] | agonistic activity at the μ-opioid receptor ([3]; HEK-hMOR calcium mobilization) | EC50 (hOPRM1 receptor) [µM] | motor function and pinna and corneal reflexes (rats) | in vitro metabolic stability [4] | recovery at 30 min, 1 µM [4] [%] | maximum possible effect (MPE) [5] [%] | effect on paw withdrawal threshold (PWT) / allodynia [5] | recovery at 30 min, 1 µM [7] [%] | IC50 [9] [µM] | also measured |
| --- | --- | --- | --- | --- | --- | --- | --- | --- | --- | --- | --- | --- | --- | --- |
| CN1c2ccccc2C(NCCCCCCC(=O)NCCc2c[nH]c3ccc(O)cc23)c2ccc(Cl)cc2S1(=O)=O (centres unmarked) [Compound 12, 7-((3-chloro-6-methyl-5,5-dioxido-6,11-dihydrodibenzo[c,f][1,2]thiazepin-11-yl)amino)-N-(2-(5-hydroxy-1H-indol-3-yl)ethyl)heptanamide] | 6 | did not show agonistic activities | < 10 | 1.2 ± 0.244 | partial agonisms | 0.134 ± 0.012 | normal | extremely low | 5 | 73 | dose-dependent increase in the withdrawal threshold; also recorded: increased the paw withdrawal threshold (PWT) compared to the vehicle | 5 | 9.66 ± 1 | melting point: 92 to 95 °C; IC50 [6]: 0.258 ± 0.057 µM; inhibition at 10 µM ([8]; 10 μM, HEK-hNET, mean ± SEM, n = 3–6, read-out: % Inhibition at 10 μM hNET): 30.1 ± 0.87% |
| CN1c2ccccc2C(NCCCCCCCNCCc2c[nH]c3ccc(O)cc23)c2ccc(Cl)cc2S1(=O)=O (centres unmarked) [Compound 17, 3-chloro-11-((7-((2-(5-hydroxy-1H-indol-3-yl)ethyl)amino)heptyl)amino)-6-methyl-6,11-dihydrodibenzo[c,f][1,2]thiazepine 5,5-dioxide] | 1 | no influence; also recorded: did not show agonistic activities | < 10 | 0.384 ± 0.025 | partial agonisms | 1.56 ± 0.195 | normal | extremely low | 0 | 83 | increased mechanical withdrawal threshold compared to vehicle; also recorded: significantly reduced allodynia; also recorded: increased the PWT; also recorded: showed antiallodynic effects at the spinal level | 1 | 2.01 ± 0.65 | fold increase in Ca2+ efflux in HEK-hMOR ([3]; HEK-hMOR): 5.9 fold; β-arrestin recruitment (hOPRM1 receptor; CHO-K1 OPRM1): lower levels of β-arrestin recruitment than compound 12; IC50 ([6]; HEK-hSERT, neurotransmitter uptake, mean ± SEM, n = 3–6, read-out: IC50 hSERT): 0.07 ± 0.009 µM; fold higher hSERT inhibitory activity than compound 12 ([6]; IC50 ratio vs compound 12): 3 fold; IC50 [8]: 0.154 ± 0.007 µM |
| CN1c2ccccc2C(NCCCCCCC(=O)O)c2ccc(Cl)cc2S1(=O)=O (centres unmarked) [Tianeptine, reference compound] |  | did not show appreciable biological activities | < 10 |  | did not show appreciable biological activities | > 5 |  |  |  |  |  |  |  | % Stimulation at 10 μM, OPRM1 Agonism against DAMGO (3.9 μM) ([3]; 10 μM, HEK-hMOR calcium mobilization, normalized to Emax of DAMGO at 3.9 μM): <10% ^b; EC50 (hMOR): 0.194 µM; EC50 (mMOR): 0.641 µM |
